Source: US10017535B2, “Amphiphilic compounds with neuroprotective properties” (USTAV ORGANICKE CHEMIE A BIOCHEMIE AV CR, v.v.i., priority 2014, dated 2018)
Structures can show the parent of a compound that is named as a salt.

Legend:
[1] = molecular target: T1, NR1-1a/NR2B NMDA receptor (Rattus norvegicus, UniProt P35439+Q00960); assay: Patch-clamp inhibition of glutamate-evoked currents at recombinant NMDA receptors in transfected HEK293 cells; format: cell-based
T1 construct: expressed in transfected cells; host or cells: HEK293 cells (ATCC CRL1573)
Procedure: Transfected cells were identified by means of fluorescent green protein (GFP) fluorescence. Its genus was transfected together with the both receptor subunit genes.
Steroid-containing solutions were prepared from fresh solution (20 mmol·l^−1, of steroid dissolved in dimethyl sulfoxide, DMSO), which was added to the extracellular solution containing 1 mmol·l^−1 glutamic acid and 10 μmol·l^−1 of glycine. Identical concentrations of DMSO were added to all other extracellular solutions.
Current responses produced by extracellular application of glutamic acid solution (1 mmol·l^−1) were measured from the whole cell by patch-clamp technique, which is used for the study of transport of charged particles through model and also natural biological membranes. The currents were measured at membrane potential maintained at −60 mV and +60 mV.
Same amounts (0.3 μg) of cDNA coding NR1, NR2 and GFP (green fluorescent protein) (pQBI 25, Takara, Japan) were mixed with 0.9 μl of Matra-A Reagent (IBA, Göttingen, Germany) and added to confluent HEK293 cells cultivated in v 24-pit cultivating plate. After trypsination, the cells were re-suspended in Opti-MEM® I containing 1% fetal bovine serum. Subsequently, 20 mmol·l^−1 MgCl2, 1 mmol l^−1 D,L-2-amino-5-phosphonopentanoic acid, 3 mmol·l^−1 kynurenic acid was added to the mixture and cells were inoculated on the polylysine-coated glass plates having 25 mm in diameter. The following genes coding NMDA receptor subunits were used for transfection: NR1-1 a (GenBank accession No. U08261) and NR2B (GenBank accession No. M91562).
HEK293 Cultured cells were used for electrophysiological investigations with a latency of 16-40 h after transfection. Whole-cell currents were measured by patch-clamp amplifier (Axopatch 1D; Axon Instruments, Inc. Foster City, USA) after capacitance and serial resistance (<10 MΩ) compensation to 80-90%. Agonist-induced responses were filtered to 1 kHz (8-pole Bessel filter; Frequency Devices, Haverhill, USA), digitized with sampling frequency of 5 kHz and analyzed by pClamp version 9 software (Axon Instruments, USA). […] Extracellular solution (ECS) contained 160 mmol·l^−1 sodium chloride, 2.5 mmol·l^−1 potassium chloride, 10 mmol·l^−1 HEPES, 10 mmol·l^−1 glucose, 0.2 mmol·l^−1 EDTA a 0.7 mmol·l^−1 calcium chloride (pH adjusted to 7.3 by sodium hydroxide solution). Glycine was added to both testing and control solution. Moreover, bicuculline (10 μmol·l^−1) and tetrodotoxin (0.5 μmol·l^−1) was added to hippocampal cultures. Steroid-containing solutions were prepared from fresh solution (20 mmol·l^−1) of steroid dissolved in dimethyl sulfoxide (DMSO). Same concentrations of DMSO were used in all extracellular solutions. Control and experimental solutions were applied via microprocessor-controlled perfusion system with approx. rate of solution exchange in areas adjacent to cells reaching ˜10 ms.
Current responses produced by 100 μmol·l^−1 of NMDA (in the case of hipocampal neurones), or by 1 mmol·l^−1 of glutamate (on recombinant NMDA receptors) were measured at membrane potential maintained at −60 mV. […] Relative effect of steroid-induced inhibition was used for calculating IC50.

[2] = system: laboratory mice, strain CD-1; assay: Open field test (locomotor activity, sedative effect); format: in vivo; conditions: for overall pathway in open field: 0.3 mg/kg, 50 minutes
Procedure: In the Experimental Part 1 were used adults (30-35 g) male laboratory mice, strain CD-1 from Velaz facility, Czech Republic. Mice were housed in plastic boxes with a 12-hour light cycle (lights on at 7:00 pm). Mice had free access to food and water.
Amphiphilic steroid compounds were dissolved in a solution of 3 g (2-hydroxypropyl)-β-cyclodextrin (CDX, Sigma-Aldrich) and 157 mg of citric acid ([…], Sigma-Aldrich) in 30 ml of distilled water, the pH was adjusted to 7.4 using sodium hydroxide (NaOH, Sigma-Aldrich). Thus there were prepared solutions of the four steroids for application rates of 0.1, 1, 10 and 100 mg/kg.
The efficacy of the studied compounds was compared to known NMDA antagonist is memantine (Sigma-Aldrich) at a dose of 5 mg/kg in rats, ketamine (Vétoquinol) at 10 mg/kg and dizocilpine (MK-801) (Sigma-Aldrich) at a dose of 0.3 mg/kg in mice. These three compounds were dissolved in saline (B Braun).
The substances at dose 0.1-100 mg/kg were administered before the test to mice intraperitoneally. As controls were used intact mice and mice that received CDX solution. Also, MK-801 (0.3 mg/kg) was used for comparison of effects of noncompetitive antagonist of NMDA receptors. From the experiment was evaluated overall track anywhere in the arena as an indicator of locomotor activity. In addition, it was judged a ten-minute segments track during each experiment. Based on these values, it was possible to determine the latency time of onset of action and changes in locomotor activity over time.
In this arrangement, the sedative effect of the studied compounds at the highest dose was evaluated. […] Over time was monitored locomotor activity and possible changes characterized by tremor, ataxia, restlessness, or sedation or general anesthesia (absence of response to stimuli, decreased muscle tone).

T1 sequence (Q00960 27-1482, other chains not shown): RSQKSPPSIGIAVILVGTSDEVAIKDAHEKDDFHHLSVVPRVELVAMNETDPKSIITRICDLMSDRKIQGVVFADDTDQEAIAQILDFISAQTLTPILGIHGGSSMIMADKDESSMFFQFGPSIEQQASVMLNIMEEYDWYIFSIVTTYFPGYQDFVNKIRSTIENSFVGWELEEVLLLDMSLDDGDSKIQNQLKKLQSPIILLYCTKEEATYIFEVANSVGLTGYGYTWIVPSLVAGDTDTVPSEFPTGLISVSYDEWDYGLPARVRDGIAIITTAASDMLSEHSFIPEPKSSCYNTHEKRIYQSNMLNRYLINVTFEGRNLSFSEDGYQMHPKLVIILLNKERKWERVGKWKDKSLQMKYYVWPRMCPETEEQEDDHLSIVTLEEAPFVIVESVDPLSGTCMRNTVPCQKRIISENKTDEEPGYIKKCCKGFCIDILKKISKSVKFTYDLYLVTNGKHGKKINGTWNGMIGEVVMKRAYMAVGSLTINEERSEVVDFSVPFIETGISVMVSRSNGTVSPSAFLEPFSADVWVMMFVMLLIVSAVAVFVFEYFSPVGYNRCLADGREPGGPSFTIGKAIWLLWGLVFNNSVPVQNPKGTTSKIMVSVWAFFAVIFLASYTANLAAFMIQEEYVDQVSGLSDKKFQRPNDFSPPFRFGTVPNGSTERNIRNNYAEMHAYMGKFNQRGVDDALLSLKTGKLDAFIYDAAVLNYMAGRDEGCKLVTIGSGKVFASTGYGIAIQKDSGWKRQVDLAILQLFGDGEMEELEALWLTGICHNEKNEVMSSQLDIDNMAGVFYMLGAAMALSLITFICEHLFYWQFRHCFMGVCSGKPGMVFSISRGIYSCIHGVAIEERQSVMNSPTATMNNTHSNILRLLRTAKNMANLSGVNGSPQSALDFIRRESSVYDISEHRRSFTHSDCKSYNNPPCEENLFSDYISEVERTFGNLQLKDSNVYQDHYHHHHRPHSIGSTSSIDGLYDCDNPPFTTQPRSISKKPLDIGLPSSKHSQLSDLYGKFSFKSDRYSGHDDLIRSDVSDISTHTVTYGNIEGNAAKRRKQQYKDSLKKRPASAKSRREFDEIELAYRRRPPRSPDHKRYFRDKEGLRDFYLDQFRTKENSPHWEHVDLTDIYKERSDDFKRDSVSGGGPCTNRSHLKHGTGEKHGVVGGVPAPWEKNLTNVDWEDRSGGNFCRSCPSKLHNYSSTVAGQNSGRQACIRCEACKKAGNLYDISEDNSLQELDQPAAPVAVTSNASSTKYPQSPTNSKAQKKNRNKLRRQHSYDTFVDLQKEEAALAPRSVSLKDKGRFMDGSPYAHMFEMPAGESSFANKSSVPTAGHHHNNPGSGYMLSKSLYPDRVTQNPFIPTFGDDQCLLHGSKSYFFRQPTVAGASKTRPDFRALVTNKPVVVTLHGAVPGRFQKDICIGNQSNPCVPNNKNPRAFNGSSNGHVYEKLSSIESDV

C=C1C[C@H]2[C@@H]3CC[C@@H]4C[C@H](OC(=O)CCC(=O)O)CC[C@]4(C)[C@H]3CC[C@]2(C)C1
melting point: 165 to 165.7 °C

C[C@@]12CCC[C@H]1[C@@H]1CC[C@@H]3C[C@H](OC(=O)[C@@H](N)CCCNC(=N)N)CC[C@]3(C)[C@H]1CC2.Cl.Cl
melting point: 238 to 240 °C

C=C1CC[C@H]2[C@@H]3CC[C@@H]4C[C@H](OC(=O)CCCCC(=O)O)CC[C@]4(C)[C@H]3CC[C@]12C
melting point: 100 to 102 °C

C[C@H]1CC[C@H]2[C@@H]3CC[C@@H]4C[C@H](OC(=O)CC(=O)O)CC[C@]4(C)[C@H]3CC[C@]12C
melting point: 158 to 161.2 °C

C[C@H]1CC[C@H]2[C@@H]3CC[C@@H]4C[C@H](OC(=O)CCC(=O)O)CC[C@]4(C)[C@H]3CC[C@]12C
melting point: 141 to 142 °C

C=C(C)[C@H]1CC[C@H]2[C@@H]3CC[C@@H]4C[C@H](OC(=O)CCC(=O)O)CC[C@]4(C)[C@H]3CC[C@]12C
melting point: 148 to 149.5 °C

C[C@@]12CCC[C@H]1[C@@H]1CC[C@@H]3C[C@H](OC(=O)CCC[N+](C)(C)C)CC[C@]3(C)[C@H]1CC2 (as salt: chloride) [Compound 62, 4-(((3R,5R,8S,9S,10S,13S,14S)-10,13-Dimethylhexadecahydro-1H-cyclopenta[a]-phenanthren-3-yl)oxy)-N,N,N-trimethyl-4-oxobutan-1-ammonium chloride]
melting point: 225 to 227 °C

C=C1CC[C@H]2[C@@H]3CC[C@@H]4C[C@H](OC(=O)C[N+](C)(C)C)CC[C@]4(C)[C@H]3CC[C@]12C (as salt: chloride) [Compound 76, 2-(((3R,5R,8R,9S,10S,13S,14S)-10,13-Dimethyl-17-methylenehexadecahydro-1H-cyclopenta[a]phenanthren-3-yl)oxy)-N,N,N-trimethyl-2-oxoethan-1-ammonium chloride]
melting point: 175 to 177 °C

COC(=O)C1(C)CCC2C(CCC3CC(OS(=O)(=O)O)CCC32C)C1C (as salt: salt) [Compound 22, Pyridinium (2R,4aS,7S,8S,10aR)-7-(methoxycarbonyl)-4a,7,8-trimethyltetra-decahydrophenanthren-2-yl 2-sulfate]
melting point: 145 to 147 °C

C[C@@H]1CC[C@H]2[C@@H](CC[C@@H]3C[C@H](OS(=O)(=O)O)CC[C@@]32C)C1 (as salt: salt) [Compound 35, Pyridinium (2R,4aS,4bS,7R,8aS,10aR)-4a,7-dimethyltetradecahydrophenanthren-2-yl 2-sulfate]
melting point: 147 to 149 °C

C[C@]12CC[C@@H](OS(=O)(=O)O)C[C@H]1CC[C@@H]1[C@@H]2CC[C@]2(C)[C@@H](I)CC[C@@H]12 (as salt: salt) [Compound 93, Pyridinium (3R,5R,8R,9S,10S,13S,14S,17S)-17-iodo-10,13-dimethylhexadecahydro-1H-cyclopenta[a]phenanthren-3-yl 3-sulfate]
melting point: 118 to 120 °C

C[C@]12CC[C@@H](OS(=O)(=O)O)C[C@H]1CC[C@@H]1[C@@H]2CC[C@@]2(C)[C@H]1CCC2(F)F (as salt: salt) [Compound 95, Pyridinium (3R,5R,8R,9S,10S,13S,14S)-17,17-difluoro-10,13-dimethylhexadecahydro-1H-cyclopenta[a]phenanthren-3-yl 3-sulfate]
melting point: 185 to 187 °C

CC12CCCCC1C1CCC3CC(OS(=O)(=O)O)CCC3(C)C1CC2 (as salt: salt) [Compound 101, Pyridinium (2R,4aS,4bS,6aS,10bS,6aS,12aR)-4a,6a-dimethyloctadecahydrochrysen-2-yl 2-sulfate]
melting point: 173 to 174 °C

C=C1C[C@H]2[C@@H]3CC[C@@H]4C[C@H](OS(=O)(=O)O)CC[C@]4(C)[C@H]3CC[C@]2(C)C1 (as salt: salt) [Compound 114, Pyridinium (3R,5R,8S,9S,10S,13R,14S)-10,13-dimethyl-16-methylenhexadekhydro-1H-cyclopenta[a]phenanthren-3-yl 3-sulfate]
melting point: 180 to 182 °C

COC(=O)[C@@]1(C)CC[C@H]2[C@@H](CC[C@@H]3C[C@H](OS(=O)(=O)O)CC[C@@]32C)C1 (as salt: sulfate) [Compound 40, Methyl (2S,4aS,4bS,7R,8aR,10aS)-2,4b-dimethyl-7-(sulfooxy)tetradecahydrophenanthren-2-carboxylate]
melting point: 115 to 118 °C

C[C@]12CC[C@@H](OC(=O)CCC(=O)O)C[C@H]1CC[C@H]1CCCC[C@@H]12 [Compound 9, 4-(((2R,4aS,4bS,8aR,10aR)-4a-Methyltetradecahydrophenanthren-2-yl)oxy)-4-oxobutanoic Acid]
melting point: 131 to 133 °C

C[C@@H]1CC[C@H]2[C@@H](CC[C@@H]3C[C@H](OC(=O)CCC(=O)O)CC[C@@]32C)C1 [Compound 34, 4-(((2R,4aS,4bS,7R,8aS,10aR)-4a,7-Dimethyltetradecahydrophenanthren-2-yl)oxy)-4-oxobutanoic acid]
melting point: 119 to 121 °C | inhibition at 10 µM ([1]; HEK293, steroid concentration 10 μmol·l^−1, 1 mmol·l^−1 glutamate, −60 mV, read-out: Mean % change ± SD): 27 ± 10% | IC50 ([1]; calculated from relative steroid-induced inhibition, Hill's coefficient 1.2, read-out: IC50): 23.2 µM

COC[C@@]1(C)CC[C@H]2[C@@H](CC[C@@H]3C[C@H](OC(=O)CCC(=O)O)CC[C@@]32C)C1 [Compound 45, 4-(((2R,4aS,4bS,7S,8aS,10aR)-7-(Methoxymethyl)-4a,7-dimethyltetradecahydrophenanthren-2-yl)oxy)-4-oxobutanoic acid]
melting point: 107 to 109 °C

C[C@@]12CCCCC1[C@@H]1CC[C@@H]3C[C@H](OC(=O)CC(=O)O)CC[C@]3(C)[C@H]1CC2 (stereo partly drawn) [Compound 102, 3-(((2R,4aS,4bS,6aS,10bS,12aR)-4a,6a-Dimethyloctadecahydrochrysen-2-yl)oxy)-3-oxopropanoic acid]
melting point: 145.3 to 147.2 °C

C[C@@]12CCCCC1[C@@H]1CC[C@@H]3C[C@H](OC(=O)CCC(=O)O)CC[C@]3(C)[C@H]1CC2 (stereo partly drawn) [Compound 103, 4-(((2R,4aS,4bS,6aS,10bS,12aR)-4a,6a-Dimethyloctadecahydrochrysen-2-yl)oxy)-4-oxobutanoic acid]
melting point: 136 to 138 °C

C[C@]12N[C@H](Cc3ccccc31)c1ccccc12 [dizocilpine, reference compound]
overall pathway in open field ([2]; vs CDX control group): significant increases | overall pathway in open field ([2]; vs intact animals (p=0.0653)): tendency to increasement | time course of locomotor activity ([2]; dizocilpine 0.3 mg/kg, ten-minute sections): gradual increase | total locomotor activity ([2]; dizocilpine 0.3 mg/kg, vs two control groups): significantly higher
